Experimental findings from patent US20250152647A1, “FORMULATIONS AND METHODS FOR SKIN CARE” (AMILYFE, LLC, priority 2022, published 2025) are described below.

The test in a line: Preliminary screens of amino acids. Here is the method: In addition to the amino acid combinations described above, several other combinations are tested that include, e.g., Trp and/or Arg to determine if inclusion of these amino acids confers additional dermatological benefits. […] At the outset, the following combinations of amino acids are tested: Ala, Gln, Gly, Ser (combo #1); Ala, Gln, Gly, Ser, Val, Ile (combo #2); Ala, Gln, Gly, Ser, Val; Ala, Gln, Gly, Ser, Ile; Ala, Gln, Gly, Ser, Ile, Val, Trp; Ala, Gln, Gly, Ser, Ile, Val, Arg; and Ala, Gln, Gly, Ser, Ile, Val, Trp, Arg.

With `N=C(N)NCCC[C@H](N)C(=O)O` [Arg, arginine], the “effect in preliminary screens” value was “positive effects”.

For `N[C@@H](Cc1c[nH]c2ccccc12)C(=O)O` [Trp, tryptophan], the “effect in preliminary screens” value is “positive effects”.
